Reference: patent US20190300832A1, “METHOD AND KIT FOR EXPANDING CIRCULATING TUMOR CELLS IN VITRO” (Taipei Medical University, priority 2018, published 2019)

Assays:
[1] = test system: circulating tumor cells derived from patients with small cell lung cancer; experiment: CellTiter Luminescent cell viability of expanded circulating tumor cells treated with drugs; type: cell-based, human; details: expanded circulating tumor cells from the second small cell lung cancer patient; FIG. 55; result in words
Protocol: In some embodiments, the preparation of the cell solution can be performed as follows. 5 ml of blood is sampled respectively patients having breast cancer, pancreatic cancer, and small cell lung cancer. 15 ml of Ficoll-Paque is added to a Leucosep™ centrifuge tube and centrifuged. The blood is diluted in phosphate buffered saline (PBS) and transferred to the Leucosep™ centrifuge tube, followed by centrifugation. After centrifugation, the supernatant in the Leucosep™ centrifuge tube is removed, and the retained lower solution is a monocyte phase. A circulating tumor cell enriched antibody mixture (RosetteSep™ CTC Enrichment Cocktail Containing AntiCD56) is added to the monocyte phase, and mixed at room temperature. After mixing, a PBS buffer containing 2% (v/v) Fetal Bovine Serum (FSB) is added and mixed to give a monocyte solution. Also, the monocyte solution is added to Ficoll-Paque and centrifuged at room temperature. […]
According to the above procedure, the circulating tumor cells 21 are isolated from the blood of two patients with small cell lung cancer and cultured. […] The cell viability was measured by CellTiter Luminescent cell viability and the survival rate is calculated by the following formula:
Cell survival rate (%)=(luminescence density in the treated group/luminescence density in the control group)×100%. […]

small cell lung cancer = experiment: Clinical treatment outcome of the patients the circulating tumor cells were taken from; type: in vivo, human; details: treated clinically
From the text: As can be known from FIG. 54, in the presence of cisplatin, etoposide, and Topotecan, the survival rate of the circulating tumor cells 21 derived the blood of the first patient is more than 85%, and there is no significant decrease compared with the control group Ctrl.
As can be known from FIG. 55, in the presence of cisplatin and topotecan, the survival rate of the expanded circulating tumor cells 21 from the second patient is less than 20%, and there is significant decrease compared with the control group Ctrl. […] In combination with the outcome where the patient is treated with cisplatin, etoposide, and Topotecan clinically, it can be further confirmed that the cisplatin and topotecan respond well to small cell lung cancer in the second patients, that is, have therapeutic effect.

SMILES	Cell survival rate compared with control group [1]	Clinical therapeutic effect on small cell lung cancer (small cell lung cancer; first patient)	Clinical therapeutic effect on small cell lung cancer (small cell lung cancer; second patient)
COc1cc([C@@H]2c3cc4c(cc3[C@@H](O[C@@H]3O[C@@H]5CO[C@@H](C)O[C@H]5[C@H](O)[C@H]3O)[C@H]3COC(=O)[C@H]23)OCO4)cc(OC)c1O [etoposide]	lower than the control group Ctrl	no significant therapeutic effect	
CC[C@@]1(O)C(=O)OCc2c1cc1n(c2=O)Cc2cc3c(CN(C)C)c(O)ccc3nc2-1 [Topotecan]		no significant therapeutic effect	respond well
N.N.[Cl][Pt][Cl] [cisplatin]		no significant therapeutic effect	respond well
